Results taken from PubChem BioAssay AID1671268.

Target: Receptor-type tyrosine-protein kinase FLT3 (Homo sapiens) (UniProt P36888)
Test: FLT3 kinase inhibitors, dose response, biochemical, Z'-LYTE, FRET, protease-coupled, direct format (AID 1671268)
Details: recombinant FLT3, Z'-LYTE FRET peptide phosphorylation

Sequence of Receptor-type tyrosine-protein kinase FLT3 (Homo sapiens) (P36888 whole entry, looked up): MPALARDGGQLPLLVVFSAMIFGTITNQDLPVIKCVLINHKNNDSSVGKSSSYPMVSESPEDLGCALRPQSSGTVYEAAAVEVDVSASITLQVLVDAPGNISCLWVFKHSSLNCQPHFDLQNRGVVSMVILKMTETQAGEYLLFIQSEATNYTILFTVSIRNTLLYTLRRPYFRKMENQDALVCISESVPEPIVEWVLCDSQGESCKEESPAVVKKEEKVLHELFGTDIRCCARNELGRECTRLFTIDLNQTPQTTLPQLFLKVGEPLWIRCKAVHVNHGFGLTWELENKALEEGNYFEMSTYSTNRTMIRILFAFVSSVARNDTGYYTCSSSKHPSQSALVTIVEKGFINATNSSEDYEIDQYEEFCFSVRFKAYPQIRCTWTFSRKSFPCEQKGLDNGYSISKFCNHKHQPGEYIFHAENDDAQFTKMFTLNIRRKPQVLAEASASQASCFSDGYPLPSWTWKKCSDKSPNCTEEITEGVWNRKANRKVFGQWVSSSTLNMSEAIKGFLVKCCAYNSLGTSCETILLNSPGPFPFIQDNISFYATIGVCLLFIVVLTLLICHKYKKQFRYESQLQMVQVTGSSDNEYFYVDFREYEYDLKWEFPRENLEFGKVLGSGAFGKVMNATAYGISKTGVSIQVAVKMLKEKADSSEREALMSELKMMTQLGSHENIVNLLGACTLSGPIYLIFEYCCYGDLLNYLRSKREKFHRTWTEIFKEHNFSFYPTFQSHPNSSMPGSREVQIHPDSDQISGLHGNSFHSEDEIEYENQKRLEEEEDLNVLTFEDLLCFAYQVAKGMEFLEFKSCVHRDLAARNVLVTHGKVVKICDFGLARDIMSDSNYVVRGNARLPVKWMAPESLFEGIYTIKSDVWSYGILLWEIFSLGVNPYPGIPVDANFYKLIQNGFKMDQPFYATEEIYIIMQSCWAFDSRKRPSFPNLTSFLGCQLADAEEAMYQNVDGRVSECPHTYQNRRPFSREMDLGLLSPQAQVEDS

COc1cc2ncnc(Nc3cccc(Cl)c3)c2cc1OC
IC50: 2940 nM
